“And” between values parts separate entries of the source, which are not always exact repeats. Equal values may be shown once.
How the values were obtained:
beagles [1] = assay: 13-week repeated oral toxicity: urine test; type: in vivo, beagle; conditions: for Acidity / Specific gravity / Creatinine UPC / Occult blood / Protein / Bilirubin: urine
Method: Urine tests were performed on the urine collected in the morning of blood donation day (Wednesday of the week) after fasting for about 16 hours, before administration, 4th week (day 29) after administration, the 8th week (day 57) after administration, and 13th week (day 92) after administration. Urine was collected from all the fasting subjects using a silicone tube connected to a duct after mounting a urine plate at the bottom of the cage for 16 hours. The collected urine was centrifuged at 1,500 rpm for 5 minutes to obtain the supernatant, then immersed in a urine strip (thinka Urine Test Strip, ARKRAY, Inc., Japan), the residue around the strip was removed, urine was analyzed using a urine analyzer (thinka RT-4010, ARKRAY, Inc., Japan), and the urine specific gravity of each subject was measured using a urine hydrometer (Master-URC.NM, ATAGO CO., LTD, Japan).

beagles [2] = assay: 13-week repeated oral toxicity: eye test; type: in vivo, beagle; conditions: before and after administration, 13 weeks
Method: Eye test were conducted in the afternoon in the blood test day and blood donation day before administration (pre), the 4th week (day 29) after administration, the 8th week (day 57), and the 13th week (day 92) after administration. After observing the appearance of the left and right eyes on all the subjects, both the left and right eyes were dilated with a mydriatic agent (Mydrin®-P eye drops, ingredients: tropicamide/phenylephrine hydrochloride Taejun Pharmaceutical), and then the vitreous body and retina were tested with an ophthalmoscope (Vantage Plus LED Convertible Wired, Keeler Instruments Inc. USA).

[3] = before administration, 200 mg/kg group, female, group mean
[4] = before administration, 200 mg/kg group, female, individual animal
[5] = before administration, 200 mg/kg group, female, individual animal, 200 mg/kg
[6] = before administration, 200 mg/kg group, male, group mean
[7] = before administration, 200 mg/kg group, male, individual animal
[8] = before administration, 200 mg/kg group, male, individual animal, 200 mg/kg
[9] = before administration, 500 mg/kg group, female, group mean
[10] = before administration, 500 mg/kg group, female, individual animal
[11] = before administration, 500 mg/kg group, female, individual animal, 500 mg/kg
[12] = before administration, 500 mg/kg group, male, group mean
[13] = before administration, 500 mg/kg group, male, individual animal
[14] = before administration, 500 mg/kg group, male, individual animal, 500 mg/kg
[15] = before administration, 1,000 mg/kg group, female, group mean
[16] = before administration, 1,000 mg/kg group, female, individual animal
[17] = before administration, 1,000 mg/kg group, male, group mean
[18] = before administration, 1,000 mg/kg group, male, individual animal
[19] = 200 mg/kg, females, repeated administration for 13 weeks, group Mean
[20] = 200 mg/kg, females, repeated administration for 13 weeks, individual animals
[21] = 200 mg/kg, males, repeated administration for 13 weeks, group Mean
[22] = 200 mg/kg, males, repeated administration for 13 weeks, individual animals
[23] = 500 mg/kg, females, repeated administration for 13 weeks, group Mean
[24] = 500 mg/kg, females, repeated administration for 13 weeks, individual animals
[25] = 500 mg/kg, males, repeated administration for 13 weeks, group Mean
[26] = 500 mg/kg, males, repeated administration for 13 weeks, individual animals
[27] = 1,000 mg/kg, females, repeated administration for 13 weeks, group Mean
[28] = 1,000 mg/kg, females, repeated administration for 13 weeks, individual animals
[29] = 1,000 mg/kg, males, repeated administration for 13 weeks, group Mean
[30] = 1,000 mg/kg, males, repeated administration for 13 weeks, individual animals

CN1C(=O)NC(=O)C1O (stereo not drawn) [KBP-001, 5-hydroxy-1-methylimidazolidine-2,4-dione]
urine test items including urine specific gravity (beagles [1]; before and after administration, 13 weeks): fell within the normal physiological ranges
Acidity (beagles [1]; [3]): 7.833 PH
Specific gravity (beagles [1]; [3]): 1.03
Creatinine UPC (beagles [1]; [4]): <0.20 mg(ratio)
Occult blood (beagles [1]; [4]): 0.03(+−) RBC/dl
Acidity (beagles [1]; [5]): 8.0 PH and 7.0 PH and 8.5 PH
Specific gravity (beagles [1]; [5]): 1.02 (2×) and 1.04
Acidity (beagles [1]; [6]): 8.000 PH
Specific gravity (beagles [1]; [6]): 1.03
Creatinine UPC (beagles [1]; [7]): <0.20 mg(ratio)
Protein (beagles [1]; [7]): 15(+−)
Acidity (beagles [1]; [8]): 8.0 PH and 7.0 PH and 9.0 PH
Specific gravity (beagles [1]; [8]): 1.03
Acidity (beagles [1]; [9]): 6.833 PH
Specific gravity (beagles [1]; [9]): 1.02
Creatinine UPC (beagles [1]; [10]): <0.20 mg(ratio)
Occult blood (beagles [1]; [10]): 0.03(+−) RBC/dl
Acidity (beagles [1]; [11]): 6.5 PH and 7.0 PH (2×)
Specific gravity (beagles [1]; [11]): 1.02
Acidity (beagles [1]; [12]): 8.167 PH
Specific gravity (beagles [1]; [12]): 1.03
Bilirubin (beagles [1]; [13]): 0.5(1+)
Creatinine UPC (beagles [1]; [13]): <0.20 mg(ratio)
Acidity (beagles [1]; [14]): 8.5 PH (2×) and 7.5 PH
Specific gravity (beagles [1]; [14]): 1.03 (2×) and 1.04
Acidity (beagles [1]; [15]): 7.667 PH
Specific gravity (beagles [1]; [15]): 1.03
Acidity (beagles [1]; [16]): 8.0 PH and 7.5 PH (2×)
Creatinine UPC (beagles [1]; [16]): <0.20 mg(ratio)
Specific gravity (beagles [1]; [16]): 1.04 and 1.02 (2×)
Acidity (beagles [1]; [17]): 8.000 PH
Specific gravity (beagles [1]; [17]): 1.03
Acidity (beagles [1]; [18]): 8.0 PH and 9.0 PH and 7.0 PH
Bilirubin (beagles [1]; [18]): 0.5(1+)
Creatinine UPC (beagles [1]; [18]): <0.20 mg(ratio)
Occult blood (beagles [1]; [18]): 0.06(1+) RBC/dl
Specific gravity (beagles [1]; [18]): 1.03 and 1.02 and 1.04
Acidity (beagles [1]; [19]): 7.333 PH
Specific gravity (beagles [1]; [19]): 1.03
Acidity (beagles [1]; [20]): 7.0 PH (2×) and 8.0 PH
Creatinine UPC (beagles [1]; [20]): <0.20 mg(ratio)
Acidity (beagles [1]; [21]): 8.567 PH
Specific gravity (beagles [1]; [21]): 1.04
Acidity (beagles [1]; [22]): 8.0 PH and 9.0 PH (2×)
Bilirubin (beagles [1]; [22]): 0.5(1+)
Creatinine UPC (beagles [1]; [22]): <0.20 mg(ratio)
Protein (beagles [1]; [22]): 15(+−)
Specific gravity (beagles [1]; [22]): 1.04 and 1.05 and 1.02
Acidity (beagles [1]; [23]): 8.500 PH
Specific gravity (beagles [1]; [23]): 1.03
Acidity (beagles [1]; [24]): 9.0 PH and 8.5 PH and 8.0 PH
Creatinine UPC (beagles [1]; [24]): <0.20 mg(ratio)
Specific gravity (beagles [1]; [24]): 1.04 (2×) and 1.02
Acidity (beagles [1]; [25]): 8.500 PH
Specific gravity (beagles [1]; [25]): 1.04
Acidity (beagles [1]; [26]): 9.0 PH (2×) and 7.5 PH
Creatinine UPC (beagles [1]; [26]): <0.20 mg(ratio)
Protein (beagles [1]; [26]): 15(+−)
Specific gravity (beagles [1]; [26]): 1.05 and 1.02 and 1.04
Acidity (beagles [1]; [27]): 7.667 PH
Specific gravity (beagles [1]; [27]): 1.03
Acidity (beagles [1]; [28]): 8.0 PH and 7.5 PH (2×)
Creatinine UPC (beagles [1]; [28]): <0.20 mg(ratio)
Specific gravity (beagles [1]; [28]): 1.05 and 1.03 and 1.02
Acidity (beagles [1]; [29]): 7.833 PH
Specific gravity (beagles [1]; [29]): 1.03
Acidity (beagles [1]; [30]): 9.0 PH and 7.0 PH and 7.5 PH
Creatinine UPC (beagles [1]; [30]): <0.20 mg(ratio)
Occult blood (beagles [1]; [30]): 0.06(1+) RBC/dl and 0.03(+−) RBC/dl
Protein (beagles [1]; [30]): 15(+−)
Specific gravity (beagles [1]; [30]): 1.04 and 1.02 and 1.03
eye test findings (beagles [2]): no specific findings were observed
